Experimental data reported in ChEMBL document CHEMBL3886494, “2′-cyano substituted nucleoside derivatives and methods of use thereof for the treatment of viral diseases” (2016).

These molecules were tested against Genome polyprotein (Hepatitis C virus genotype 1b (isolate BK) (HCV), UniProt P26663) (assay: Inhibition Assay: To measure inhibition of the enzymatic activity of the HCV NS5B RNA-dependent RNA polymerase by the nucleoside triphosphate compounds of the present invention, a radiolabeled nucleotide incorporation assay was used. This assay is a modified version of the assay described in International Publication No. WO2002/057287. Briefly, 50 uL reactions containing 20 mM HEPES (pH 7.3); 7.5 mM DTT; 20 units/ml RNasIN; 1 uM each of ATP, GTP, UTP and CTP; 20 uCi/mL [33P]-CTP; 10 mM MgCl; 60 mM NaCl; 100 ug/ml BSA; 0.021 uM DCoH heteropolymer RNA template; and 5 nM NS5B (1b-BKΔ55) enzyme were incubated at room temperature for 1 hour. The assay was then terminated by the addition of 500 mM EDTA (50 uL). The reaction mixture was transferred to a Millipore DE81 filter plate and the incorporation of labeled CTP is determined using Packard TopCount. Compound IC50 values can then be calculated from experiments with 10 serial 3-fold dilutions of the inhibitor in duplicate.).
Chain of Genome polyprotein (P26663 2420-3010 limits assumed): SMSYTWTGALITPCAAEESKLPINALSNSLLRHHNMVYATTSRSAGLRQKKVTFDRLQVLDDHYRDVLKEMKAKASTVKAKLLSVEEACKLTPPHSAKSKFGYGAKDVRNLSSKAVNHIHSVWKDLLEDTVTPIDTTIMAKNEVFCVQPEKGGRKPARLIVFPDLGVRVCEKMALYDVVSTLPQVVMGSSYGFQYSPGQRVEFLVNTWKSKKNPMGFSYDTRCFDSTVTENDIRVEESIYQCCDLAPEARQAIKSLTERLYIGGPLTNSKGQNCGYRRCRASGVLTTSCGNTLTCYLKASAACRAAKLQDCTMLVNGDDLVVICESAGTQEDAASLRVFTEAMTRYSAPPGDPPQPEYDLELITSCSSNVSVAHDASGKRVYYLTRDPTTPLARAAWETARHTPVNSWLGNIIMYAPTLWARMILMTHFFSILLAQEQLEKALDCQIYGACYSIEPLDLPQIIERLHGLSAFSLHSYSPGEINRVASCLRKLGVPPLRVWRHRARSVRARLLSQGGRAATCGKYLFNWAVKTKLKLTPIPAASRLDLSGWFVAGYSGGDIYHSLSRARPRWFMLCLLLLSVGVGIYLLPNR

SMILES	IC50 [µM]
CO[C@]1(c2cnc3c(N)ncnn23)O[C@@H](COP(=O)(O)OP(=O)(O)OP(=O)(O)O)[C@H](O)C1(C)C#N (some centres not stated)	3.8
C[C@]1(C#N)[C@H](O)[C@H](COP(=O)(O)OP(=O)(O)OP(=O)(O)O)O[C@]1(C#N)c1ccc2c(N)ncnn12	1.2
CC1(C#N)[C@@H](O)[C@H](COP(=O)(O)OP(=O)(O)OP(=O)(O)O)O[C@]1(C#N)c1cnc2c(=O)[nH]cnn12 (some centres not stated)	> 200
C[C@@]1(C#N)[C@H](O)[C@@H](COP(=O)(O)OP(=O)(O)OP(=O)(O)O)O[C@H]1c1ccc2c(N)ncnn12	0.003
C[C@@]1(C#N)[C@@H](c2cnc3c(N)ncnn23)O[C@@H](COP(=O)(O)OP(=O)(O)OP(=O)(O)O)[C@@H]1O	0.05
CO[C@]1(c2ccc3c(N)ncnn23)O[C@@H](COP(=O)(O)OP(=O)(O)OP(=O)(O)O)[C@H](O)[C@]1(C)C#N	0.087
CC1(C#N)[C@H](O)[C@@H](COP(=O)(O)OP(=O)(O)OP(=O)(O)O)O[C@@]1(C#N)c1cnc2c(N)ncnn12 (some centres not stated)	87
